The series can be described thus: D90 particle size of atovaquone by Malvern Mastersizer. The class given is physicochemical. The procedure:
[…]

Where [1] appears, read: Run 1, stir time 1 min, 30 mg in 900 mL purified water, polysorbate 80, 10 min sonication, 400 rpm.

Each structure is given as a SMILES string.

With `O=C1C(O)=C([C@H]2CC[C@H](c3ccc(Cl)cc3)CC2)C(=O)c2ccccc21` [Example 1, trans-2-[4-(4-chlorophenyl)cyclohexyl]-3-hydroxy-1,4-naphthalenedione], the D90 particle size under setting [1] was found to be 5.088 microns; the D90 particle size (Run 1, stir time 2 min) was determined as 5.089 microns; the D90 particle size (Run 1, stir time 3 min) is 5.090 microns; the D90 particle size (Run 1, stir time 4 min) amounted to 5.088 microns; the D90 particle size (Run 1, stir time 5 min) came to 5.088 microns; the D90 particle size (Run 2, stir time 1 min) worked out at 5.182 microns. This compound also gave a D90 particle size (Run 2, stir time 2 min) of 5.183 microns; a D90 particle size (Run 2, stir time 3 min) of 5.182 microns; a D90 particle size (Run 2, stir time 4 min) of 5.183 microns; a D90 particle size (Run 2, stir time 5 min) of 5.184 microns; a D90 particle size (Run 3, stir time 1 min) of 5.049 microns; a D90 particle size (Run 3, stir time 2 min) of 5.049 microns. For the same compound, the D90 particle size is, setting by setting: (Run 3, stir time 3 min) 5.048 microns; (Run 3, stir time 4 min) 5.047 microns; (Run 3, stir time 5 min) 5.048 microns; (Run 4, stir time 1 min) 5.283 microns; (Run 4, stir time 2 min) 5.282 microns; (Run 4, stir time 3 min) 5.283 microns. Also, the D90 particle size turned out to be 5.284 microns (Run 4, stir time 4 min) and 5.281 microns (Run 4, stir time 5 min).

For `O=C1C(O)=C([C@H]2CC[C@H](c3ccc(Cl)cc3)CC2)C(=O)c2ccccc21` [Example 2, trans-2-[4-(4-chlorophenyl)cyclohexyl]-3-hydroxy-1,4-naphthalenedione], the D90 particle size runs as follows: under setting [1], 6.177 microns; (Run 1, stir time 2 min) 6.176 microns; (Run 1, stir time 3 min) 6.175 microns; (Run 1, stir time 4 min) 6.176 microns; (Run 1, stir time 5 min) 6.176 microns; (Run 2, stir time 1 min) 6.258 microns. The D90 particle size reads like this: (Run 2, stir time 2 min) 6.257 microns; (Run 2, stir time 3 min) 6.258 microns; (Run 2, stir time 4 min) 6.260 microns; (Run 2, stir time 5 min) 6.259 microns; (Run 3, stir time 1 min) 6.338 microns; (Run 3, stir time 2 min) 6.339 microns. Also, the D90 particle size by setting is: (Run 3, stir time 3 min) 6.336 microns; (Run 3, stir time 4 min) 6.339 microns; (Run 3, stir time 5 min) 6.337 microns; (Run 4, stir time 1 min) 6.572 microns; (Run 4, stir time 2 min) 6.572 microns; (Run 4, stir time 3 min) 6.572 microns. Also, the D90 particle size (Run 4, stir time 4 min) is reported as 6.569 microns and the D90 particle size (Run 4, stir time 5 min) is recorded as 6.571 microns.

As for `O=C1C(O)=C([C@H]2CC[C@H](c3ccc(Cl)cc3)CC2)C(=O)c2ccccc21` [Example 3, trans-2-[4-(4-chlorophenyl)cyclohexyl]-3-hydroxy-1,4-naphthalenedione], the D90 particle size is recorded as 4.280 microns under setting [1]; 4.280 microns (Run 1, stir time 2 min); 4.280 microns (Run 1, stir time 3 min); 4.280 microns (Run 1, stir time 4 min); 4.280 microns (Run 1, stir time 5 min); 4.260 microns (Run 2, stir time 1 min). Further, the D90 particle size came out at 4.260 microns (Run 2, stir time 2 min); 4.261 microns (Run 2, stir time 3 min); 4.261 microns (Run 2, stir time 4 min); 4.260 microns (Run 2, stir time 5 min); 4.124 microns (Run 3, stir time 1 min); 4.124 microns (Run 3, stir time 2 min). Besides, the D90 particle size came out at 4.123 microns (Run 3, stir time 3 min); 4.123 microns (Run 3, stir time 4 min); 4.125 microns (Run 3, stir time 5 min); 4.285 microns (Run 4, stir time 1 min); 4.285 microns (Run 4, stir time 2 min); 4.286 microns (Run 4, stir time 3 min). In addition, the D90 particle size reads like this: (Run 4, stir time 4 min) 4.286 microns; (Run 4, stir time 5 min) 4.286 microns.

In turn, `O=C1C(O)=C([C@H]2CC[C@H](c3ccc(Cl)cc3)CC2)C(=O)c2ccccc21` [Example 4, trans-2-[4-(4-chlorophenyl)cyclohexyl]-3-hydroxy-1,4-naphthalenedione] returned a D90 particle size under setting [1] of 4.651 microns; a D90 particle size (Run 1, stir time 2 min) of 4.652 microns; a D90 particle size (Run 1, stir time 3 min) of 4.652 microns; a D90 particle size (Run 1, stir time 4 min) of 4.653 microns; a D90 particle size (Run 1, stir time 5 min) of 4.651 microns; a D90 particle size (Run 2, stir time 1 min) of 4.628 microns. Also, the D90 particle size amounted to 4.628 microns (Run 2, stir time 2 min); 4.629 microns (Run 2, stir time 3 min); 4.631 microns (Run 2, stir time 4 min); 4.630 microns (Run 2, stir time 5 min); 4.836 microns (Run 3, stir time 1 min); 4.836 microns (Run 3, stir time 2 min). In addition, the D90 particle size by setting is: (Run 3, stir time 3 min) 4.837 microns; (Run 3, stir time 4 min) 4.836 microns; (Run 3, stir time 5 min) 4.984 microns; (Run 4, stir time 1 min) 4.814 microns; (Run 4, stir time 2 min) 4.814 microns; (Run 4, stir time 3 min) 4.815 microns. Moreover, the D90 particle size was 4.814 microns (Run 4, stir time 4 min) and 4.814 microns (Run 4, stir time 5 min).

As for `O=C1C(O)=C([C@H]2CC[C@H](c3ccc(Cl)cc3)CC2)C(=O)c2ccccc21` [Example 5, trans-2-[4-(4-chlorophenyl)cyclohexyl]-3-hydroxy-1,4-naphthalenedione], the D90 particle size by setting is: under setting [1], 7.971 microns; (Run 1, stir time 2 min) 7.949 microns; (Run 1, stir time 3 min) 8.215 microns; (Run 1, stir time 4 min) 8.276 microns; (Run 1, stir time 5 min) 7.948 microns; (Run 2, stir time 1 min) 7.726 microns. Further, the D90 particle size stood at 7.723 microns (Run 2, stir time 2 min); 7.726 microns (Run 2, stir time 3 min); 7.727 microns (Run 2, stir time 4 min); 7.723 microns (Run 2, stir time 5 min); 7.978 microns (Run 3, stir time 1 min); 7.974 microns (Run 3, stir time 2 min). The compound also displayed a D90 particle size (Run 3, stir time 3 min) of 7.977 microns; a D90 particle size (Run 3, stir time 4 min) of 7.979 microns; a D90 particle size (Run 3, stir time 5 min) of 7.973 microns.

These data come from patent US20110206770A1, “ATOVAQUONE WITH A PARTICLE SIZE DIAMETER RANGE (D90) OF GREATER THAN 3 MICRONS TO ABOUT 10 MICRONS” (Alphapharm Pty. Ltd., priority 2008, published 2011).
